melting point [°C] | SMILES
164 to 165 | N#C/C(=N\Nc1c(Cl)cc(C(F)(F)F)cc1Cl)c1ccc(Cl)cc1 [Compound 3.16, 4-{1-[(2,6-dichloro-4-trifluoromethylphenyl)hydrazono]-2-nitriloethyl}chlorobenzene]
186 to 187 | N#C/C(=N\Nc1c(Cl)cc(C(F)(F)F)cc1Cl)c1ccc(C#N)cc1 [Compound 3.4, 4-{1-[(2,6-dichloro-4-trifluoromethylphenyl)hydrazono]-2-nitriloethyl}benzonitrile]
